Source: ChEMBL document CHEMBL5120971, “Network Pharmacology Research and Dual-omic Analyses Reveal the Molecular Mechanism of Natural Product Nodosin Inhibiting Muscle-Invasive Bladder Cancer in Vitro and in Vivo” (J Nat Prod, 2022)
Activity calls are given as the source filed them.

Experiments:
SW780 = assay: Cytotoxicity against human SW780 cells assessed as reduction in cell growth by CCK8 assay; type: functional, cell-based
UMUC3 = assay: Cytotoxicity against human UMUC3 cells assessed as reduction in cell growth at 4 uM by CCK8 assay; type: functional, cell-based; settings: time 24-72 hrs, TDE = time-dependent effect
T-24 [1] = assay: Induction of morphological changes in human T24 cells assessed as cytoplasmic condensation at 4 to 12 uM measured after 48 hrs by microscopy; type: functional, cell-based; settings: dose 4-12 µM
T-24 [2] = assay: Cell cycle arrest in human T24 cells assessed as increase in cell accumulation at S-phase at 2 to 8 uM measured after 24 hrs by propidium iodide staining based flow cytometry; type: functional; settings: dose 2-8 µM
T-24 [3] = assay: Effect on RPA2 expression in human T24 cells at 6 uM measured after 24 to 30 hrs by proteomic analysis; type: functional, cell-based; settings: time 24-30 hrs
T-24 [4] = assay: Effect on MDC1 expression in human T24 cells at 6 uM measured after 24 to 30 hrs by proteomic analysis; type: functional, cell-based; settings: time 24-30 hrs
T-24 [5] = assay: Effect on DDB1 expression in human T24 cells at 6 uM measured after 24 to 30 hrs by proteomic analysis; type: functional, cell-based; settings: time 24-30 hrs
T-24 [6] = assay: Effect on MSH2 expression in human T24 cells at 6 uM measured after 24 to 30 hrs by proteomic analysis; type: functional, cell-based; settings: time 24-30 hrs
T-24 [7] = assay: Effect on POLD3 expression in human T24 cells at 6 uM measured after 24 to 30 hrs by proteomic analysis; type: functional, cell-based; settings: time 24-30 hrs
T-24 [8] = assay: Effect on RHOB expression in human T24 cells at 6 uM measured after 24 to 30 hrs by proteomic analysis; type: functional, cell-based; settings: time 24-30 hrs
T-24 [9] = assay: Inhibition of DNA replication in human T24 cells at 4 to 10 uM measured after 24 hrs by EdU staining based fluorescence assay; type: functional, cell-based; settings: dose 4-10 µM
T-24 [10] = assay: Induction of apoptosis in human T24 cells assessed as early apoptotic cells at 4 uM measured after 48 hrs by Annexin V-FITC/propidium iodide staining based flow cytometry (reference value: 1.2%); type: functional
T-24 [11] = assay: Induction of apoptosis in human T24 cells assessed as viable cells at 6 uM measured after 48 hrs by Annexin V-FITC/propidium iodide staining based flow cytometry (reference value: 97.49%); type: functional; settings: read-out: Activity
T-24 [12] = assay: Induction of apoptosis in human T24 cells assessed as early apoptotic cells at 8 uM measured after 48 hrs by Annexin V-FITC/propidium iodide staining based flow cytometry (reference value: 1.2%); type: functional
T-24 [13] = assay: Induction of apoptosis in human T24 cells assessed as necrotic cells at 8 uM measured after 48 hrs by Annexin V-FITC/propidium iodide staining based flow cytometry (reference value: 0.57%); type: functional
T-24 [14] = assay: Up regulation of HMOX1 expression in human T24 cells at 6 uM measured after 24 to 30 hrs by proteomic analysis; type: functional, cell-based; settings: time 24-30 hrs
T-24 [15] = assay: Induction of apoptosis in human T24 cells assessed as effect on SQSTM1 expression at 6 uM measured after 24 to 30 hrs by proteomic analysis; type: functional, cell-based; settings: time 24-30 hrs
T-24 [16] = assay: Induction of apoptosis in human T24 cells assessed as effect on RMDN3 expression at 6 uM measured after 24 to 30 hrs by proteomic analysis; type: functional, cell-based; settings: time 24-30 hrs
T-24 [17] = assay: Induction of apoptosis in human T24 cells assessed as effect on TRIAP1 expression at 6 uM measured after 24 to 30 hrs by proteomic analysis; type: functional, cell-based; settings: time 24-30 hrs
T-24 [18] = assay: Induction of apoptosis in human T24 cells assessed as effect on ARL6IP1 expression at 6 uM measured after 24 to 30 hrs by proteomic analysis; type: functional, cell-based; settings: time 24-30 hrs
T-24 [19] = assay: Induction of autophagy in human T24 cells assessed as up regulation of SQSTM1 expression at 6 uM measured after 24 to 30 hrs by proteomic analysis; type: functional, cell-based; settings: time 24-30 hrs
T-24 [20] = assay: Induction of autophagy in human T24 cells assessed as effect on PRKAA2 gene expression at 6 uM measured after 12 to 18 hrs by transcriptome analysis; type: functional, cell-based; settings: time 12-18 hrs
T-24 [21] = assay: Induction of autophagy in human T24 cells assessed as effect on SQSTM1 gene expression at 6 uM measured after 12 to 18 hrs by transcriptome analysis; type: functional, cell-based; settings: time 12-18 hrs
T-24 [22] = assay: Induction of autophagy in human T24 cells assessed as effect on RAB24 gene expression at 6 uM measured after 12 to 18 hrs by transcriptome analysis; type: functional, cell-based; settings: time 12-18 hrs
T-24 [23] = assay: Induction of autophagy in human T24 cells assessed as effect on OPTN gene expression at 12 to 18 uM measured after 24 to 30 hrs by analysis; type: functional, cell-based; settings: dose 12-18 µM, time 24-30 hrs
T-24 [24] = assay: Induction of apoptosis in human T24 cells assessed as up regulation of SQSTM1 expression at 6 to 12 uM measured after 24 to 30 hrs by Western blot analysis; type: functional, cell-based; settings: dose 6-12 µM, time 24-30 hrs
T-24 [25] = assay: Induction of apoptosis in human T24 cells assessed as up regulation of MAP1LC3B expression at 6 to 12 uM measured after 24 to 30 hrs by Western blot analysis; type: functional, cell-based; settings: dose 6-12 µM, time 24-30 hrs
T-24 [26] = assay: Induction of apoptosis in human T24 cells assessed as up regulation of SQSTM1 expression at 6 to 12 uM measured after 24 hrs by immunofluorescence analysis; type: functional, cell-based; settings: dose 6-12 µM
T-24 [27] = assay: Induction of cell membrane disruption in human T24 cells at 4 to 20 uM measured after 24 hrs by Dio/Hoechst 33342 staining based fluorescence assay; settings: dose 4-20 µM
T-24 [28] = assay: Up regulation of FTL gene expression in human T24 cells at 6 uM measured after 12 to 18 hrs by transcriptome analysis; type: functional, cell-based; settings: time 12-18 hrs
T-24 [29] = assay: Up regulation of SLC7A11 gene expression in human T24 cells at 6 uM measured after 12 to 18 hrs by transcriptome analysis; type: functional, cell-based; settings: time 12-18 hrs
T-24 [30] = assay: Up regulation of FTL expression in human T24 cells at 6 uM measured after 24 to 30 hrs by proteomic analysis; type: functional, cell-based; settings: time 24-30 hrs
T-24 [31] = assay: Up regulation of AIFM2 expression in human T24 cells at 6 uM measured after 24 to 30 hrs by proteomic analysis; type: functional, cell-based; settings: time 24-30 hrs
T-24 [32] = assay: Antimigratory activity against human T24 cells assessed as down regulation of LIMA1 expression at 6 uM measured after 24 to 30 hrs by proteomic analysis; type: functional, cell-based; settings: time 24-30 hrs
T-24 [33] = assay: Antimigratory activity against human T24 cells assessed as down regulation of PALLD expression at 6 uM measured after 24 to 30 hrs by proteomic analysis; type: functional, cell-based; settings: time 24-30 hrs
T-24 [34] = assay: Antimigratory activity against human T24 cells at 4 to 12 uM measured after 24 hrs by scratch test; type: functional, cell-based; settings: dose 4-12 µM
T-24 [35] = assay: Antimigratory activity against human T24 cells assessed as reduction in F-actin expression at 8 to 20 uM measured after 24 hrs by actin-tracker red-594/DAPI staining based fluorescence assay; type: functional, cell-based; settings: dose 8-20 µM
T-24 [36] = assay: Antitumor activity against human T24 cells xenografted in BALB/c mouse assessed as reduction in tumor growth at 2 mg/kg, ip administered at 2 days interval; type: functional, organism-based
T-24 [37] = assay: Antitumor activity against human T24 cells xenografted in BALB/c mouse assessed as reduction in mitotic count at 2 mg/kg, ip administered at 2 days interval by H and E staining based assay; type: functional, organism-based

C=C1C(=O)[C@]23C[C@H]1C[C@@H](O)[C@H]2[C@@]12CO[C@@H](O)[C@@H]1C(C)(C)CC[C@@H]2OC3=O [NODOSIN]
active: Activity (SW780; DDE = dose-dependent effect) Dde | Activity (UMUC3) Tde | Activity (T-24 [1]) | Activity (T-24 [2]) | Activity (T-24 [3]) | Activity (T-24 [4]) | Activity (T-24 [5]) | Activity (T-24 [6]) | Activity (T-24 [7]) | Activity (T-24 [8]) | inhibition (T-24 [9]) | Activity (T-24 [14]) | Activity (T-24 [15]) | Activity (T-24 [16]) | Activity (T-24 [17]) | Activity (T-24 [18]) | Activity (T-24 [19]) | Activity (T-24 [20]) | Activity (T-24 [21]) | Activity (T-24 [22]) | Activity (T-24 [23]) | Activity (T-24 [24]) | Activity (T-24 [25]) | Activity (T-24 [26]) | Activity (T-24 [27]) | Activity (T-24 [28]) | Activity (T-24 [29]) | Activity (T-24 [30]) | Activity (T-24 [31]) | Activity (T-24 [32]) | Activity (T-24 [33]) | Activity (T-24 [34]) | Activity (T-24 [35]) | Activity (T-24 [36]) | Activity (T-24 [37])
78.8%: viability at 6 µM (T-24 [11])
10.54%: Activity (T-24 [12])
2.38%: Activity (T-24 [10])
9.99 µM: IC50 (SW780)
0.35%: Activity (T-24 [13])
